Patent US10111841B2, “Stabilization of alcohol intoxication-induced cardiovascular instability” (UNIVERSITY OF SOUTH FLORIDA, priority 2015, dated 2018)

How the values were obtained:
[1] = test system: HUVEC; assay: TER of HUVEC monolayers on gold-plated electrodes (endothelial barrier function); type: cell-based; settings: for course of barrier function (TER) over time / restoration of barrier function (TER) after alcohol: 50 mM alcohol, 10 min later 1 μM compound
Procedure: (§1) FIGS. 3A-3D. Alcohol-induced endothelial barrier dysfunction in cultured endothelial cell monolayers. FIG. 3A: Time-course of changes in transepithelial electrical resistance (TER) of HUVEC monolayers following application of vehicle (water) or 20, 50, or 100 mM alcohol. FIG. 3B: Time course of alcohol-induced changes in TER in HMVEC-C monolayers. FIG. 3C: The mean maximum alcohol-induced changes in TER in HUVEC. FIG. 3D: Mean maximum alcohol-induced changes in TER in HMVEC-c. *P<0.05 and **P<0.01 vs. vehicle. One-way ANOVA followed by Dunnett's test, all groups, N=4.
FIGS. 6A and 6B. Alcohol-induced barrier dysfunction in HUVEC was resolved faster by S1P treatment. HUVEC were cultured to confluence on gold-plated electrodes and then serum starved for 1-2 hours. Following 30 minutes of baseline TER measurements, alcohol was added to the wells to a final concentration of 50 mM for 5 minutes before treatment with 1 μM of […] or vehicle. FIG. 6A: Time course of changes in HUVEC monolayer TER in response to 50 mM alcohol, followed by addition of 1 μM S1P 5 min later, or vehicle (PBS) 5 min later. FIG. 6B: Mean recovery time for HUVEC, i.e., time to return to baseline TER, starting from the time point immediately preceding alcohol was added. **P<0.01 versus alcohol/vehicle group. Statistical analysis by t-test; all HUVEC groups, N=8.
(§2) FIGS. 10A-10C. Selective S1P1R agonist FTY720-phosphonate ameliorates alcohol-induced microvascular hyperpermeability. FTY720 and its analogs reverse alcohol-induced disruption of EC monolayer barrier function. In all panels, 50 mM alcohol or vehicle was applied first, and 10 min later, 1 μM of FTY720 (FIG. 10A) FTY720-P (FIG. 10B) or FTY720 (S)-phosphonate (FIG. 10C) or vehicle was added. […] A minimum of N=4 monolayers in each group.
(§3) The direct impact of alcohol on endothelial barrier function was tested using cultured HUVEC or HMVEC-c confluent monolayers grown on gold-plated electrodes. Thirty minutes of baseline transepithelial electrical resistance (TER) measurements were recorded before the cells were treated with alcohol at final bath concentrations of 20, 50 or 100 mM. Alcohol was added directly into the MEDIA within the wells. […] The decrease in TER was alcohol concentration-dependent with high alcohol concentrations eliciting a larger drop in TER. The maximal decline in TER from baseline was significant for the 50 and 100 mM concentrations in both HUVEC (FIG. 3C) and HMVEC-c (FIG. 3D).
The inventors next set out to determine if S1P could similarly reduce the recovery time for TER to be reestablished to baseline in HUVEC pretreated with alcohol. Following 30 minutes of baseline TER measurements, alcohol was added to the wells to a final concentration of 50 mM for 5 minutes before treatment with 1 μM S1P or vehicle.
(§4) FIGS. 10A-C show TER data. TER is an index of the barrier function of endothelial cells. […] Unlike S1P, which restored the barrier in about 5 min (see FIG. 6A), FTY720 restored barrier function occurred gradually (FIG. 10A).

[2] = test system: mesenteric microcirculation; assay: IVM of FITC-albumin extravasation in the rat mesenteric microcirculation; type: in vivo, Sprague-Dawley rats
Procedure: FIGS. 2A-2D. […] FIG. 2C: Mean maximum change in IOI in the extravascular space from the initial baseline just after FITC-albumin was injected i.v. to the end of the IVM experiment. FIG. 2D: Mean mesenteric arteriolar diameter in the observed microvascular beds. *P<0.05, alcohol vs. water. Mann-Whitney U-test, N=5 rats studied for the water group, and N=8 rats studied for the alcohol group.
FIGS. 7A-7C. […] White circles highlight areas of FITC-Albumin fluorescence in the surrounding interstitium. White arrows indicate areas of FITC-Albumin accumulation resulting in hotspots of fluorescence within and just outside the vessel walls. […] FIG. 7C: Mean maximum change in IOI in the extravascular space, from the initial baseline just after FITC-albumin was injected i.v. **P<0.01, Alcohol-Sham. Statistical analysis by t-test; both treatment groups, N=8.
S1P has been used to reduce the permeability of rat microvessels to BSA, however, only one study has been performed in intact animals. Using the inventors' established method of observing hyperpermeability in the rat mesentery, the ability of S1P to abolish or attenuate the enhanced extravasation of FITC-albumin caused by acute alcohol intoxication was examined. After receiving a 2.5 g/kg bolus of alcohol and allowed free roaming for 30 minutes, rats were prepared for IVM and administered S1P to a final concentration of 2 μM within the FITC-albumin infusion. This provided an estimated final plasma concentration of S1P in the rats of 0.2 μM.

[3] = MAP during fixed-pressure hemorrhage and resuscitation (HSR) protocol; type: in vivo, Sprague-Dawley rats
[4] = MAP during IVM following HSR; type: in vivo, Sprague-Dawley rats; settings: alcohol-intoxicated rats; 0.1 mg/kg S1P during resuscitation; 30 minutes IVM; only 3 experiments
Procedure: The time-course of changes in MAP of Sprague-Dawley rats treated with alcohol, water, or alcohol and 0.1 mg/kg S1P within the resuscitation fluid during the IVM stage.
As before, immediately following completion of the HSR protocol the animal was anesthetized and prepped for IVM. During IVM, MAP is continually monitored. […] At the time of writing this, only 3 IVM experiments were performed with alcohol-intoxicated animals that received S1P during resuscitation.

[5] = combined hemorrhage and trauma (laparotomy), anesthetized rats; cited from earlier work
[6] = swine, uncontrolled hemorrhage; cited from earlier work
[7] = 0.5 mg/kg; anesthetized rats; several hours after administration; cited from earlier work
[8] = test system: endothelial barrier; settings: in vitro; cited from earlier work
[9] = test system: microvascular hyperpermeability; settings: in vivo; cited from earlier work
[10] = target: S1P1R (Homo sapiens, UniProt P21453); settings: cited from earlier work
[11] = multiple sclerosis patients; cited from earlier work
[12] = test system: HMVEC-c; assay: TER of HMVEC-c / cardiac microvascular EC monolayers; type: cell-based
Procedure: as §1, §2, §3, §4

[13] = test system: mesenteric microcirculation
From the text: FIG. 5A: Representative fluorescent image of the mesenteric microcirculation of a rat that received water and undergoing sham-HSR illustrating that FITC-albumin was present mainly inside the lumen of microvessels. […] FIG. 5C: Representative image of the mesenteric microcirculation of a water-treated rat that underwent HSR. FIG. 5D: Representative image of the mesenteric microcirculation of an alcohol-treated rat that underwent HSR.
Immediately following completion of the HSR protocol the animal was anesthetized and prepped for IVM. […] This extravasation was quantified by calculating the mean 60-minute RM.

[14] = Blood alcohol concentration after intragastric alcohol; settings: 30 minutes after 2.5 g/kg alcohol vs time-matched water-treated groups
Procedure: Blood alcohol concentrations (BAC) 30 minutes after administration of 2.5-g/kg alcohol or isovolumic water. Intragastric catheters were implanted 2-3 days before the day of experiments. Male Sprague-Dawley rats were administered 2.5 g/kg alcohol or isovolumic water and allowed to freely roam in their cages for 30 minutes. Following 30 minutes incubation, experimental protocols were begun and blood samples obtained.
Administration of a 2.5-g/kg dose of alcohol was performed via an intragastric catheter that was implanted 2-3 days before the day of experiment. The animals were allowed to roam freely for 30 minutes after administration.

[15] = alcohol-intoxicated rats (2.5 g/kg), S1P in the FITC-albumin infusion, estimated plasma 0.2 μM
[16] = cardiac microvascular EC, 50 mM alcohol, 10 min later 1 μM compound
[17] = 2.5 g/kg alcohol vs water-treated animals

S1P1R, sequence (P21453 whole entry): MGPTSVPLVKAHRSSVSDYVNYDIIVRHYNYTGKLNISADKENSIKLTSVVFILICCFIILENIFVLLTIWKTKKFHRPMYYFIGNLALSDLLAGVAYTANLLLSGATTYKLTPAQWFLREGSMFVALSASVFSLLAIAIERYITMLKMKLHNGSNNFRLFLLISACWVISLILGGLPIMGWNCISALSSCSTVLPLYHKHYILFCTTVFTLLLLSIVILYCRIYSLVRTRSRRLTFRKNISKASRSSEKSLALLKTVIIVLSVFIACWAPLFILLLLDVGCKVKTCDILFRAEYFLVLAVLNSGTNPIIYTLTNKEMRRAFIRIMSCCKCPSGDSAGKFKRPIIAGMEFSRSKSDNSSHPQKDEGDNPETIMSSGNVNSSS

## CCCCCCCCCCCCC/C=C/[C@@H](O)[C@@H](N)COP(=O)(O)O [S1P, sphingosine-1-phosphate]
[1]; 50 mM alcohol for 5 minutes, then 1 μM S1P
  TER time course after alcohol: rapidly rise to the previously established baseline levels
[1]; 50 mM alcohol for 5 minutes, then 1 μM S1P or vehicle
  reestablishing baseline TER faster than cells treated with vehicle (recovery time): about 30 minutes
[1]; after alcohol, FIG. 6A
  time to restore the barrier: about 5 min
[2]; [15]
  extravasation of FITC-albumin: marked reduction
  mean IOI in the extravascular space vs FITC-albumin infusion alone: significantly lower
[3]; alcohol-intoxicated rats, 0.1 mg/kg S1P within lactated Ringer's resuscitation fluid
  recovery of MAP during resuscitation: same impaired recovery of MAP
[4]
  MAP higher than alcohol-intoxicated animals that received standard fluids: 20-25 mm Hg

## CCCCCCCCc1ccc(CCC(N)(CO)CO)cc1 [FTY720, 2-amino-2-(4-octylphenethyl)propane-1,3-diol]
[1]
  course of barrier function (TER) over time: gradually
  restoration of barrier function (TER) after alcohol: accelerated its restoration to the baseline level
[5]
  hypotension and lung injury: reduced
[6]
  survival: improved survival
[7]
  baseline blood pressure: reduced baseline blood pressure
[8]
  endothelial barrier function: enhances endothelial barrier function
[9]
  VEGF- and histamine-induced microvascular hyperpermeability: reduces
[10]
  S1P1R turnover: can cause proteasome-mediated turnover of S1P1R
[11]
  rate of clinical relapses: reduce the rate of clinical relapses

## CCCCCCCCc1ccc(CC[C@@](N)(CO)CCP(=O)(O)O)cc1 [FTY720 (S)-phosphonate, (S)-3-amino-3-(hydroxymethyl)-5-(4-octylphenyl)pentylphosphonic acid]
[1]
  course of barrier function (TER) over time: sustained enhancement of barrier integrity over time
  restoration of barrier function (TER) after alcohol: rapid rescue of barrier function, rising above baseline levels
[8]
  endothelial barrier function: longer-lasting endothelial barrier enhancement
[10]
  S1P1R turnover: limits this S1P1R turnover

## CCCCCCCCc1ccc(CC[C@](N)(CO)COP(=O)(O)O)cc1 [FTY720-P]
[12]; [16]
  course of barrier function (TER) over time: overshoot over the original baseline, followed by a gradual drop over time
  restoration of barrier function (TER) after alcohol: much more rapid elevation in barrier function

## CCO [alcohol]
[1]; 50 and 100 mM alcohol vs vehicle
  maximal decline in TER from baseline: significant
[1]; alcohol 20, 50 or 100 mM
  TER of the monolayer: immediate decline in the TER
[12]; HMVEC-c, 50 and 100 mM alcohol vs vehicle
  maximal decline in TER from baseline: significant
[12]; HMVEC-c, alcohol 20, 50 or 100 mM
  TER of the monolayer: immediate decline in the TER
[2]; 2.5 g/kg alcohol intragastric vs water control rats
  mean maximal change in IOI in the extravascular space adjacent to postcapillary venules: significantly higher
[2]; 2.5 g/kg alcohol vs control groups
  mean arteriolar diameter of third-order arterioles: no significant difference
[3]; 2.5 g/kg alcohol vs water
  recovery of MAP during the resuscitation phase: significantly blunted
[3]; [17]
  baseline MAP: significantly lower
  total blood volume shed to achieve the 40-60 mm Hg target MAP (TBR): significantly less
[13]; alcohol-HSR rats vs water-HSR rats
  mean 60-minute IOI (printed RN) in the extravascular space: significantly higher
[13]; alcohol-sham rats vs water-sham rats
  mean 60-minute IOI in the extravascular space: significantly higher
[14]
  BAC: significantly higher
